The values that follow come from patent publication US20160082130A1, “Dosage Forms and Methods for Diagnosing Sympathetic Nervous System Dysfunction” (priority 2014, published 2016).

For assay [1], the system named is patients with a diagnosis of GBS. In words: apraclonidine 0.05% eye drop test in patients with Guillain-Barré syndrome (digital photographs, Image-J). Type of assay: in vivo, human. An excerpt:
(§1) Patients with a diagnosis of GBS based on history and clinical exam were recruited for this study. Patients with diabetes were excluded from the study. Patients on medications or eye drops with either sympathetic or parasympathetic action were also excluded from the study. […] All patients had electrophysiological studies done in terms of nerve conduction studies at the time of their diagnosis. Patients on opioid therapy were not excluded. In total, five patients met the criteria for inclusion. Healthy control participants were recruited in outpatient clinics from partners and family members accompanying a person with an appointment. Participants with diabetes, ocular disease, previous ocular surgeries, and on sympathetic or parasympathetic medications or eye drops were also excluded from the study. Digital photographs of the subjects' eyes were obtained prior to the application of apraclonidine. A small pre-measured reference was used at the time of photography to help quantify measurements. Apraclonidine (0.05% drop) was added to the left eye and a follow up photograph was obtained some time (19-52 min) after the application of the drop. The digital photographs were analyzed with Image-J software (Schneider, C. A., et al., Nat. Methods 9:671-675, 2012) to determine pupillary diameter and palpebral fissure heights. Standard deviation of the measurements for error propagation was determined by repeated computer measurement of the pre-measured reference in a digital photograph. Palpebral fissure height was determined by measuring the vertical distance between the eyelids with the measurement going through the centre of each pupil. Pupillary diameter was determined with two measurements (horizontal and vertical) and an average denoted as OS or OD used for each pupil for further calculations. Pupillary response was quantified with the percentage ratio (D2−D1)/D1×100, where D1 and D2 represent the baseline anisocoria (D1=OS−OD) and the drug-induced anisocoria (D2=OS*−OD*) respectively.

The subject of assay [2] is healthy subjects. Put plainly: apraclonidine 0.05% eye drop test in healthy control subjects (digital photographs, Image-J). Type of assay: in vivo, human.
Source text: as §1

Consider `Nc1cc(Cl)c(NC2=NCCN2)c(Cl)c1` [apraclonidine, 2,6-dichloro-N-(4,5-dihydro-1H-imidazol-2-yl)benzene-1,4-diamine], for which the “amplification of palpebral fissure height difference after application” value in assay [1] (GBS patients with only ptosis, computer analysis of digital photographs) was 1130% (±80%). Also, the “amplification of anisocoria after administration” value in assay [1] (GBS patients with pupillary dysfunction, (D2-D1)/D1x100) is 1124% (±324%). The “unmasking of bilateral ptosis” value in assay [1] (five GBS patients, 0.05% drop to left eye, photograph 19-52 min after) is given as “unmasked bilateral ptosis in all five GBS patients”. Also, in assay [1] (five GBS patients, 0.05% drop to one eye), the “unmasking of bilateral Horner's syndrome with dilation of miotic pupil” value was “unmasked bilateral Horner's syndrome with dilation of miotic pupil in two of the five patients”. Besides, the “unmasking of reverse ptosis of the lower eyelid” value in assay [1] (photographic evidence from the subjects in this study) is listed as “unmasks a reverse ptosis of the lower eyelid”. Also, the “effect on pupillary diameter” value in assay [2] (healthy subjects, 0.05% drop to one eye) is “no significant effect”. In addition, the “effect on the pupils” value in assay [2] (healthy subjects, analysis of digital photographs) is given as “either no effect or caused paradoxical miosis of the pupil”. Also, the “effect on palpebral fissure height” value in assay [2] (normal individuals, 0.05% drop to one eye) was “did not have any significant effect”.
